Assay results from patent US9315475B2 (MERCK SHARP & DOHME CORP., priority 2011, dated 2016).

target: T1, wildtype HIV-1 protease (Human immunodeficiency virus type 1 group M subtype B, UniProt P04585); test: Assay for inhibition of microbial expressed HIV protease (Pepcleav); format: biochemical; settings: wild type HIV-1 protease expressed in E. coli, peptide substrate, pH 5.5; mean of at least two independent experiments; read-out: Pepcleav
T1 construct: the wildtype HIV-1 protease (which was expressed in Escherichia coli); made in house; host or cells: Escherichia coli
Description: Assay for Inhibition of Microbial Expressed HIV Protease (“Pepcleav”)
Studies of the inhibition of the wildtype HIV-1 protease (which was expressed in Escherichia coli) were carried out with a peptide substrate [Val-Ser-Gln-Asn-(βnaphthyl)Ala-Pro-Ile-Val (SEQ ID NO:1)]. The inhibitor is first preincubated with the HIV-1 protease (wild type) enzyme in assay buffer (50 mM sodium acetate, pH 5.5, 100 mM NaCl, and 0.1% BSA) for 30 minutes at room temperature. Substrate is added to 400 micromolar in a total volume of 20 microliters containing 20 picomolar HIV-1 protease (final) and the reaction is incubated for 1 hour at 30° C. The reaction is quenched with the addition of formic acid and indinavir to 0.012% and 150 nM final concentrations, respectively. The product formation is determined after separation of product and substrate on a Zorbax Eclipse XDB-C 18 column connected to an API 4000 mass spectrometer (Applied Biosystems) with multiple reaction monitoring (transitions were 644.5/428.9 and 615.4/422.2 (M1/M3) for product and indinavir respectively). The extent of inhibition of the reaction is determined from the peak area of the products.

Row | SMILES | IC50 [nM]
1 | COC(=O)N[C@H](C(=O)Nc1ccccc1CC[C@@H]1CN[C@H](COC(=O)N(C)C)CO1)C(c1ccccc1)c1ccccc1 [Example 26, methyl N-[(1S)-1-benzhydryl-2-[[2-[2-[(2R,5S)-5-(dimethylcarbamoyloxymethyl)morpholin-2-yl]ethyl]phenyl]amino]-2-oxo-ethyl]carbamate] | 210
2 | COC(=O)N[C@H](C(=O)Nc1ccccc1CC[C@@H]1CN[C@H](COC(=O)N2CCCC2)CO1)C(c1ccccc1)c1ccccc1 [Example 27, [(3S,6R)-6-[2-[2-[[(2S)-2-(methoxycarbonylamino)-3,3-diphenyl-propanoyl]amino]phenyl]ethyl]morpholin-3-yl]methyl pyrrolidine-1-carboxylate] | 180
3 | COC(=O)N[C@H](C(=O)Nc1ccccc1CC[C@@H]1CN[C@H](COC(=O)NCCN(C)C)CO1)C(c1ccccc1)c1ccccc1 [Example 28, methyl N-[(1S)-1-benzhydryl-2-[[2-[2-[(2R,5S)-5-(2-dimethylaminoethylcarbamoyloxymethyl)morpholin-2-yl]ethyl]phenyl]amino]-2-oxo-ethyl]carbamate] | 250
4 | COC(=O)N[C@H](C(=O)Nc1ccccc1CC[C@@H]1CN[C@H](COC(=O)N[C@H]2COC[C@@H]2F)CO1)C(c1ccccc1)c1ccccc1 [Example 29, N-[2-(2-{(2R,5S)-5-[({[(3S,4R)-4-fluorotetrahydrofuran-3-yl]carbamoyl}oxy)methyl]morpholin-2-yl}ethyl)phenyl]-Nα-(methoxycarbonyl)-β-phenyl-L-phenylalaninamide] | 18
5 | CNC(=O)OC[C@@H]1CO[C@H](CCc2ccccc2NC(=O)[C@@H](NC(=O)OC)C(c2ccccc2)c2ccccc2)CN1 [Example 30] | 32
6 | COC(=O)N[C@H](C(=O)Nc1ccccc1CC[C@@H]1CN[C@H](COC(=O)NC(C2CC2)C(F)(F)F)CO1)C(c1ccccc1)c1ccccc1 (stereo partly drawn) [Example 31, N-(2-{2-[(2R,5S)-5-({[(1-cyclopropyl-2,2,2 trifluoroethyl)carbamoyl]oxy}methyl)morpholin-2-yl]ethyl}phenyl)-Nα-(methoxycarbonyl)-β-phenyl-L-phenylalaninamide] | 29
7 | COC(=O)N[C@H](C(=O)Nc1ncccc1CC[C@@H]1CN[C@H](COC(=O)NCc2ccc(F)cc2)CO1)C(c1ccccc1)c1ccccc1 [Example 32, N-(3-{2-[(2R,5S)-5-({[(4-fluorobenzyl)carbamoyl]oxy}methyl)morpholin-2-yl]ethyl}pyridin-2-yl)-Nα-(methoxycarbonyl)-β-phenyl-L-phenylalaninamide] | 21
8 | COC(=O)N[C@H](C(=O)Nc1cnccc1CC[C@@H]1CN[C@H](COC(=O)NCc2ccc(F)cc2)CO1)C(c1ccccc1)c1ccccc1 [Example 33, N-(4-{2-[(2R,5S)-5-({[(4-fluorobenzyl)carbamoyl]oxy}methyl)morpholin-2-yl]ethyl}pyridin-3-yl)-Nα-(methoxycarbonyl)-β-phenyl-L-phenylalaninamide] | 5.7
9 | COC(=O)N[C@H](C(=O)Nc1cnccc1CC[C@@H]1CN[C@H](COC(=O)NCC(F)(F)F)CO1)C(c1ccccc1)c1ccccc1 [Example 34, Nα-(methoxycarbonyl)-β-phenyl-N-(4-{2-[(2R,5S)-5-({[(2,2,2-trifluoroethyl)carbamoyl]oxy}methyl)morpholin-2-yl]ethyl}pyridin-3-yl)-L-phenylalaninamide] | 14
10 | COC(=O)N[C@H](C(=O)Nc1c(CC[C@@H]2CN[C@H](COC(=O)NCC(F)(F)F)CO2)ccnc1OC)C(c1ccccc1)c1ccccc1 [Example 35, Nα-(methoxycarbonyl)-N-(2-methoxy-4-{2-[(2R,5S)-5-({[(2,2,2-trifluoroethyl)carbamoyl]oxy}methyl)morpholin-2-yl]ethyl}pyridin-3-yl)-β-phenyl-L-phenylalaninamide] | 60
11 | COC(=O)N[C@H](C(=O)Nc1cncnc1CC[C@@H]1CN[C@H](COC(=O)NCc2ccc(F)cc2)CO1)C(c1ccccc1)c1ccccc1 [Example 36, N-(4-{2-[(2R,5S)-5-({[(4-fluorobenzyl)carbamoyl]oxy}methyl)morpholin-2-yl]ethyl}pyrimidin-5-yl)-Nα-(methoxycarbonyl)-β-phenyl-L-phenylalaninamide] | 24
12 | COC(=O)N[C@H](C(=O)Nc1cncnc1CC[C@@H]1CN[C@H](COC(=O)NCC(F)(F)F)CO1)C(c1ccccc1)c1ccccc1 [Example 37, Nα-(methoxycarbonyl)-β-phenyl-N-(4-{2-[(2R,5S)-5-({[(2,2,2-trifluoroethyl)carbamoyl]oxy}methyl)morpholin-2-yl]ethyl}pyrimidin-5-yl)-L-phenylalaninamide] | 180
13 | COC(=O)N[C@H](C(=O)Nc1c(CC[C@@H]2CN[C@H](COC(=O)NCc3ccc(F)cc3)CO2)cc[nH]c1=O)C(c1ccccc1)c1ccccc1 [Example 38, N-(4-{2-[(2R,5S)-5-({[(4-fluorobenzyl)carbamoyl]oxy}methyl)morpholin-2-yl]ethyl}-2-oxo-1,2-dihydropyridin-3-yl)-Nα-(methoxycarbonyl)-β-phenyl-L-phenylalaninamide] | 0.6
14 | COC(=O)N[C@H](C(=O)Nc1c(CC[C@@H]2CN[C@H](COC(=O)NCC(F)(F)F)CO2)cc[nH]c1=O)C(c1ccccc1)c1ccccc1 [Example 39, Nα-(methoxycarbonyl)-N-(2-oxo-4-{2-[(2R,5S)-5-({[(2,2,2-trifluoroethyl)carbamoyl]oxy}methyl)morpholin-2-yl]ethyl}-1,2-dihydropyridin-3-yl)-β-phenyl-L-phenylalaninamide] | 2.3
15 | COC(=O)N[C@H](C(=O)Nc1ccccc1CC[C@@H]1CN[C@H](CNC(=O)Nc2ccccc2)CO1)C(c1ccccc1)c1ccccc1 [Example 40, N-α-(methoxycarbonyl)-β-phenyl-N-(2-{2-[(2R,5R)-5-{[(phenylcarbamoyl)amino]methyl}morpholin-2-yl]ethyl}phenyl)-L-phenylalaninamide] | 52
16 | COC(=O)N[C@H](C(=O)Nc1ccccc1CC[C@@H]1CN[C@H](CNC(=O)Nc2cccnn2)CO1)C(c1ccccc1)c1ccccc1 [Example 41, methyl N-[(1S)-1-benzhydryl-2-oxo-2-[[2-[2-[(2R,5R)-5-[(pyridazin-3-ylcarbamoyl-amino)methyl]morpholin-2-yl]ethyl]phenyl]amino]ethyl] carbamate] | 2.9
17 | COC(=O)N[C@H](C(=O)Nc1ccccc1CC[C@@H]1CN[C@H](CNC(=O)Nc2ccccn2)CO1)C(c1ccccc1)c1ccccc1 [Example 42, methyl N-[(1S)-1-benzhydryl-2-oxo-2-[[2-[2-[(2R,5R)-5-[(2-pyridylcarbamoylamino)methyl]morpholin-2-yl]ethyl]phenyl]amino]ethyl]carbamate] | 17
18 | COC(=O)N[C@H](C(=O)Nc1ccccc1CC[C@@H]1CN[C@H](CNC(=O)Nc2cc[nH]n2)CO1)C(c1ccccc1)c1ccccc1 [Example 43, methyl N-[(1S)-1-benzhydryl-2-oxo-2-[[2-[2-[(2R,5R)-5-[(1H-pyrazol-3-ylcarbamoylamino)methyl]morpholin-2-yl]ethyl]phenyl]amino]ethyl]carbamate] | 96
19 | COC(=O)N[C@H](C(=O)Nc1ccccc1CC[C@@H]1CN[C@H](CNS(=O)(=O)c2ccccc2)CO1)C(c1ccccc1)c1ccccc1 [Example 44, Nα-(methoxycarbonyl)-β-phenyl-N-(2-{2-[(2R,5R)-5-{[(phenylsulfonyl)amino]methyl}morpholin-2-yl]ethyl}phenyl)-L-phenylalaninamide] | 26
20 | COC(=O)N[C@H](C(=O)Nc1ccccc1CC[C@@H]1CN[C@H](CNS(=O)(=O)c2ccc3cnnn3c2)CO1)C(c1ccccc1)c1ccccc1 [Example 45, methyl N-[(1S)-1-benzhydryl-2-oxo-2-[[2-[2-[(2R,5R)-5-[(triazolo[1,5-a]pyridin-6-ylsulfonylamino)methyl]morpholin-2-yl]ethyl]phenyl]amino]ethyl]carbamate] | 21
21 | COC(=O)N[C@H](C(=O)Nc1ccccc1CC[C@@H]1CN[C@H](CNS(=O)(=O)c2cccc(C(F)(F)F)n2)CO1)C(c1ccccc1)c1ccccc1 [Example 46, methyl N-[(1S)-1-benzhydryl-2-oxo-2-[[2-[2-[(2R,5R)-5-[[[6-(trifluoromethyl)-2-pyridyl]sulfonylamino]methyl]morpholin-2-yl]ethyl]phenyl]amino]ethyl]carbamate] | 50
22 | COC(=O)N[C@H](C(=O)Nc1ccccc1CC[C@@H]1CN[C@H](CNS(=O)(=O)C2CC2)CO1)C(c1ccccc1)c1ccccc1 [Example 47, methyl N-[(1S)-1-benzhydryl-2-[[2-[2-[(2R,5R)-5-[(cyclopropyl-sulfonylamino)methyl]morpholin-2-yl]ethyl]phenyl]amino]-2-oxo-ethyl]carbamate] | 84
23 | COC(=O)N[C@H](C(=O)Nc1ccccc1CC[C@@H]1CN[C@H](CNS(=O)(=O)c2ccccn2)CO1)C(c1ccccc1)c1ccccc1 [Example 48, methyl N-[(1S)-1-benzhydryl-2-oxo-2-[[2-[2-[(2R,5R)-5-[(2-pyridylsulfonylamino)methyl]morpholin-2-yl]ethyl]phenyl]amino]ethyl]carbamate] | 91
